The results in this text go back to patent US20220227796A1, “EGFR INHIBITORS, COMPOSITIONS AND METHODS THERE OF” (Betta Pharmaceuticals Co., Ltd., priority 2019, published 2022).

Read-outs that look alike come from different tables or passages of the source.

One assay has as its system H1975(L858R/T790M). The assay is described as follows: H1975 cells proliferation assay. The conditions noted are these: for IC50: Homo sapiens, read-out: H1975 IC50. It is filed as cell-based. As for the experimental part:
(§1) Test 3 H1975 and HCC827 Cells Proliferation Assay
(§2) a) The medium was preheated in a 37° C. water bath in advance.
(§3) b) Remove the cryogenic vials from the liquid nitrogen tank, quickly put it into a 37° C. water bath, and completely melt it in 1 min.
(§4) c) Transfer the cell suspension to a 15 mL centrifuge tube containing 8 mL medium, centrifuge 1000 rpm, 5 min.
(§5) d) Discard the supernatant, resuspend the cells in 1 mL medium, and transfer to a 75 cm^2 flask containing 15 mL medium, culture the cells in an incubator at 37° C., 5% CO2.
(§6) b) Collect cell to a 15 mL centrifuged tube, centrifuge at 1000 rpm for 5 min. Discard the supernatant, count, and make the cell density at 1×10^4 cells/mL, then place it in a 37° C., 5% CO2 incubator.
(§7) b) The above compound solution was diluted 1:20 times with culture medium to prepare a 10 fold working solution;
(§8) a) Take cells in log phase growth, centrifuge at 1000 rpm for 5 min, then resuspend the cells with culture medium, then count cells;
(§9) b) Cells were seeded to 96-well cell culture plate with density at 2000 cells/well (suitable for H1975 cell) and at 2500 cells/well (suitable for HCC827 cell);
(§10) The blank control well was a culture medium (0.5% DMSO);
(§11) b) The cells were incubated for an additional 72 h in the incubator.
(§12) a) Remove the 96-well cell culture plate and add 50 μl of CTG reagent (CellTiter Glo kit, promega, Cat #G7573).
(§13) b) Plate was shaked for 2 min and then let it cool for 10 min at room temperature.
(§14) c) The Luminescence signal value was read using a PerkinElmer reader.
(§15) Experimental Data Analysis
(§16) Data were analyzed using GraphPad Prism 6.0 software to obtain a fitted curve of compound activity.
(§17) Y=Bottom+(Top−Bottom)/(1+10^((Log IC50−X)*HillSlope));
(§18) The cells proliferation assay results are expressed with IC50, shown as Table 2.

The subject of the next assay is HCC827(Δ19del). The assay is described as follows: HCC827 cells proliferation assay. The conditions noted are these: Homo sapiens, read-out: HCC827 IC50. In kind it is cell-based. The protocol:
as §1, §2, §3, §4, §5, §6, §7, §8, §9, §10, §11, §12, §13, §14, §15, §16, §17, §18

The mark [1] stands for this setting: NCI-H1975, cell proliferation, 72 h, CellTiter Glo, class symbols.
[2] abbreviates: HCC827, cell proliferation, 72 h, CellTiter Glo, class symbols.

Consider `C=CC(=O)Nc1cc(Nc2nccc(-c3cn(C)c4ccccc34)n2)c(OC)cc1N(C)CCN(C)C` [Comparative compound B, reference compound], for which the IC50 in the assay with H1975(L858R/T790M) (NCI-H1975, 72 h) is < 0.01 µM; with HCC827(Δ19del) (HCC827, 72 h) it was < 0.01 µM. Moreover, in the assay with H1975(L858R/T790M) (summary in words of Table 2), the “inhibition of double mutant (L858R/T790M)” value is listed as “higher inhibition”.

Turning to `C=CC(=O)Nc1cc(Nc2ncc(Br)c(Nc3ccc4nccnc4c3P(C)(C)=O)n2)c(OC)cc1N1CCC(N2CCN(C)CC2)CC1` [Compound 13, N-(5-((5-bromo-4-((5-(dimethylphosphoryl)quinoxalin-6-yl)amino)pyrimidin-2-yl)amino)-4-methoxy-2-(4-(4-methylpiperazin-1-yl)piperidin-1-yl)phenyl)acrylamide], the IC50 in the assay on H1975(L858R/T790M) (setting [1]) and in the assay on HCC827(Δ19del) (setting [2]) was 0.01 to 0.05 µM each time.

Take `C=CC(=O)Nc1cc(Nc2ncc(Cl)c(Nc3ccccc3P(C)(C)=O)n2)c(OC)cc1N(C)CCN(C)C` [Compound 25, N-(5-((5-chloro-4-((2-(dimethylphosphoryl)phenyl)amino)pyrimidin-2-yl)amino)-2-((2-(dimethylamino)ethyl)(methyl)amino)-4-methoxyphenyl)acrylamide]: the IC50 in the assay with HCC827(Δ19del) (setting [2]) is < 0.01 µM.

In the case of `C=CC(=O)Nc1cc(Nc2ncc(F)c(Nc3ccccc3P(C)(C)=O)n2)c(OC)cc1N(C)CCN(C)C` [Compound 27, N-(2-((2-(dimethylamino)ethyl)(methyl)amino)-5-((4-((2-(dimethylphosphoryl)phenyl)amino)-5-fluoropyrimidin-2-yl)amino)-4-methoxyphenyl)acrylamide], the IC50 in the assay with H1975(L858R/T790M) (setting [1]) and in the assay on HCC827(Δ19del) (setting [2]) was < 0.01 µM each time.

On to `C=CC(=O)Nc1cc(Nc2ncc(Cl)c(Nc3ccccc3P(C)(C)=O)n2)c(C)cc1N1CCC2(CC1)CC(N(C)C)C2` [Compound 31, N-(5-((5-chloro-4-((2-(dimethylphosphoryl)phenyl)amino)pyrimidin-2-yl)amino)-2-(2-(dimethylamino)-7-azaspiro[3.5]nonan-7-yl)-4-methylphenyl)acrylamide], for which the IC50 in the assay on H1975(L858R/T790M) (setting [1]) and in the assay on HCC827(Δ19del) (setting [2]) was 0.01 to 0.05 µM in each case.

In the case of `C=CC(=O)Nc1cc(Nc2nccc(Nc3ccccc3P(C)(C)=O)n2)c(OC)cc1N(C)CCN(C)C` [Compound 39, N-(2-((2-(dimethylamino)ethyl)(methyl)amino)-5-((4-((2-(dimethylphosphoryl)phenyl)amino)pyrimidin-2-yl)amino)-4-methoxyphenyl)acrylamide], the values for the IC50 in the assay with H1975(L858R/T790M) (setting [1]) and in the assay on HCC827(Δ19del) (setting [2]) were 0.01 to 0.05 µM and < 0.01 µM, respectively.
